{
  "source": "patent US12629419B2",
  "about": "“Prevention or mitigation of T-cell engaging agent-related adverse effects” (Hoffmann-La Roche Inc., priority 2020, dated 2026)",
  "key": {"[1]": {"system": "cytokine release induced by CAR-T cells", "assay": "cytokine release induced by PGLALA and CD16 CAR-T cells (Luminex)", "assay_type": "cell-based", "conditions": "100 nM inhibitor", "description": "(§1) FIG. 62. Effect of 100 nM ruxolitinib and 100 nM sirolimus on GM-CSF (A), IFN-γ (B), IL-2 (C) and TNF-α (D) induced by PGLALA CAR-T cells. PGLALA CAR-T cells were co-cultured together with CTV labelled WSU tumor cells (E:T=10:1) and escalating concentrations of PGLALA-Fc anti-CD20 IgG in the presence and absence of 100 nM ruxolitinib (ruxo) or 100 nM sirolimus (siro) respectively. At 24 hours, the supernatants from technical replicates were pooled and cytokines were analyzed by Luminex. Mean of n=2 donors.\nas §1, with “63.” for “62.”, “CD16” for “PGLALA”, “wild-type Fc” for “PGLALA-Fc”, “(siro).” for “(siro) respectively.”\nTo assess the impact of JAK inhibitor ruxolitinib and mTOR inhibitor sirolimus on cytokine release induced by CAR-T cells, we conducted a killing assay where PGLALA and CD16 universal CAR-T cells (CAR-T cells with a CAR comprising an anti-P329G-Fc scFv (binding to PGLALA Fc) or CD16 (binding to wild-type Fc)) were co-cultured with CTV WSU tumor cells in the presence of escalating concentrations of PGLALA Fc and wild-type Fc anti-CD20 IgG in medium supplemented with 100 nM ruxolitinib or 100 nM sirolimus. To verify whether ruxolitinib and sirolimus interfered with tumor cell killing by CAR-T cells, we measured killing of CTV WSU tumor cells by flow cytometry at 24 hours."}, "[2]": {"system": "NALM-6 tumors cells", "assay": "CD19-TCB killing assay with NALM-6 cells, inhibitors added after 24 hrs of activation: killing", "assay_type": "cell-based", "conditions": "100 nM added at 24 hrs; measured at 48 hrs", "description": "(§2) FIG. 78. In vitro killing assay set-up. PBMCs were co-cultured with CTV labelled NALM-6 cells (E:T=10:1) in the presence of escalating concentrations of CD19-TCB for 24 hrs. At 24 hrs, the culture medium was supplemented with 100 nM dasatinib, 100 nM sirolimus or 100 nM ruxolitinib.\n(§3) To assess whether the mTOR inhibitor sirolimus, the JAK1/2 inhibitor ruxolitinib and the Src inhibitor dasatinib can prevent further release of cytokines induced by the treatment of CD19-TCB, they were added in an in vitro killing assay after 24 hrs of activation (FIG. 78). In this assay CTV labelled NALM-6 tumors cells were co-cultured with PBMCs in the presence of escalating doses of CD19-TCB for 24 hrs. At 24 hrs, 100 nM ruxolitinib, 100 nM sirolimus or 100 nM dasatinib were added in the system. To verify if T cells were activated before the addition of the different kinase inhibitors, tumor cell killing and cytokine release were measured at 24 hrs (FIGS. 79 and 80). Lastly, cytokine release and tumor cell killing were measured at 48 hrs to assess the effect of the addition of 100 nM ruxolitinib, 100 nM sirolimus or 100 nM dasatinib on CD19-TCB-induced cytokine release as compared to the effect on killing."}, "[3]": {"system": "CD19-TCB-induced cytokine release", "assay": "CD19-TCB NALM-6 assay, inhibitors added after 24 hrs: cytokine release", "assay_type": "cell-based", "conditions": "100 nM added at 24 hrs; between 24 hrs and 48 hrs", "description": "as §2, §3"}, "[4]": {"system": "CD20+ B cells", "assay": "CD19-TCB-induced B cell depletion in humanized NSG mice", "assay_type": "in vivo", "conditions": "for CD19-TCB-induced B cell depletion in blood: co-treatment with 0.5 mg/kg CD19-TCB; for CD19-TCB-induced CD20+ B cell depletion in the spleen: 72 hrs (termination)", "source_text": "(§4) FIG. 81. In vivo experiment timelines and dosing schedule.\n(§5) To best reproduce the pharmacodynamic profile of ruxolitinib, dasatinib and sirolimus in the clinic and to verify whether the resulting exposure would be sufficient to prevent CD19-TCB-induced cytokine release, dasatinib and ruxolitinib were given per os twice per day, and sirolimus was given per os twice per day on day 1 and then once per day.\nAt 48 hrs and 72 hrs, blood was collected by tail-vein bleeding and the CD20+ B cell count was measured by flow cytometry (FIGS. 82A and B) to assess the effect of the different treatments on CD19-TCB-induced B cell depletion. […] Its half-life being around 6-7 hrs and dasatinib being given only twice per day, a lack of exposure could likely explain that CD19-TCB was partially active, resulting in B cell depletion. At experiment termination (72 hrs), spleens were collected and the B cell count was measured by flow-cytometry (FIG. 83). […] However, their inhibitory effect was stronger than methylprednisolone (FIG. 83)."}, "[5]": {"system": "CD19-TCB-induced cytokine release", "assay": "CD19-TCB-induced cytokine release in humanized NSG mice (serum, Luminex)", "assay_type": "in vivo", "conditions": "serum 6 hrs post treatment with CD19-TCB", "source_text": "as §4, §5"}, "[6]": {"system": "lymphoma patient derived xenograft (PDX)", "assay": "CD19-TCB anti-tumor activity in lymphoma PDX bearing humanized NSG mice", "assay_type": "in vivo", "conditions": "sirolimus 5 mg/kg, p.o.; for anti-tumor activity in combination with CD19-TCB (0.5 mg/kg): ruxolitinib 30 mg/kg, dasatinib 20 mg/kg, dexamethasone, transient use", "description": "(§6) FIG. 89. In vivo experiment timelines and dosing schedule. Humanized NSG mice were engrafted with a lymphoma PDX (5 million cells, s.c.). […] The kinase inhibitors were given twice on the day of the first CD19-TCB administration (D16, once 1 hour before CD19-TCB, and once afterwards), and then once (sirolimus) or twice (dasatinib, ruxolitinib) on the two following days (D17 and D18), as well as once 1 hour before each subsequent CD19-TCB administration.\n(§7) First, we verified if the PDX cells were killed upon treatment with CD19-TCB in vitro, using a killing assay. The lymphoma PDX cells were co-cultured together with PBMCs (E:T=10:1) in the presence of CD19-TCB. […] Moreover, they were also administered one hour before each subsequent treatment to prevent residual cytokine secretion (FIG. 89)."}, "[7]": {"system": "CD19-TCB-mediated cytokine release", "assay": "cytokine release upon first CD19-TCB infusion in lymphoma PDX bearing mice (serum)", "assay_type": "in vivo", "conditions": "for effects on cytokine levels: compared with obinutuzumab pre-treatment", "description": "as §6\nFIG. 94. […] Cytokine levels were measured by Luminex in serum collected 6 hrs post first infusion with CD19-TCB. Mean of n=6-8 mice+SD with *p≤0.05, **p<0.01, ***p<0.001 by 1 way ANOVA (Kruskal Wallis test).\nas §7"}, "[8]": {"conditions": "48 hrs, p.o.: 6×30 mg/kg ruxolitinib, 4×5 mg/kg sirolimus, dexamethasone, methylprednisolone"}, "[9]": {"conditions": "72 hrs, dasatinib 6×50 mg/kg p.o."}, "[10]": {"conditions": "serum 6 hrs post first infusion with CD19-TCB, ruxolitinib 30 mg/kg"}},
  "note": "“Also recorded” adds a separate entry of the source.",
  "data": [
    {"smiles": "CO[C@H]1C[C@@H]2CC[C@@H](C)[C@@](O)(O2)C(=O)C(=O)N2CCCC[C@H]2C(=O)O[C@H]([C@H](C)C[C@@H]2CC[C@@H](O)[C@H](OC)C2)CC(=O)[C@H](C)/C=C(\\C)[C@@H](O)[C@@H](OC)C(=O)[C@H](C)C[C@H](C)/C=C/C=C/C=C/1C", "note": "[sirolimus, Sirolimus]", "values": [
      {"measurement": "release of IFN-γ, TNF-α and GM-CSF", "setting": "[1]; CD16 CAR-T cells", "value": "strongly reduced"},
      {"measurement": "release of IL-2", "setting": "[1]; CD16 CAR-T cells", "value": "strongly reduced"},
      {"measurement": "release of IFN-γ, TNF-α and GM-CSF", "setting": "[1]; PGLALA CAR-T cells", "value": "strongly reduced"},
      {"measurement": "release of IL-2", "setting": "[1]; PGLALA CAR-T cells", "value": "strongly reduced"},
      {"measurement": "CTV labelled NALM-6 tumor cell killing", "setting": "[2]", "value": "did not prevent"},
      {"measurement": "further release of IFN-γ, TNF-α, IL-2 and IL-6", "setting": "[3]", "value": "prevented further release"},
      {"measurement": "CD19-TCB-induced B cell depletion in blood", "setting": "[4]; [8]", "value": "slightly prevented"},
      {"measurement": "CD19-TCB-induced CD20+ B cell depletion in the spleen", "setting": "[4]", "value": "only partially prevented"},
      {"measurement": "CD19-TCB-induced B cell depletion in blood", "setting": "[4]; [9]", "value": "comparable to the effect dexamethasone"},
      {"measurement": "CD19-TCB-induced IFN-γ and IL-6 release", "setting": "[5]", "value": "comparable to the pre-treatement with obinutuzumab"},
      {"measurement": "CD19-TCB-induced IL-2 and TNF-α", "setting": "[5]", "value": "comparable to the pre-treatement with Gazyva®"},
      {"measurement": "anti-tumor activity in combination with CD19-TCB (0.5 mg/kg)", "setting": "[6]", "value": "comparable to CD19-TCB alone; also recorded: did not impair"},
      {"measurement": "tumor growth, given as a single agent", "setting": "[6]; dexamethasone 1, 0.5, 0.25 mg/kg", "value": "reduction in tumor growth, yet not significant"},
      {"measurement": "effects on cytokine levels", "setting": "[7]", "value": "stronger than the effect of obinutuzumab pre-treatment"},
      {"measurement": "IL-2, IFN-γ, TNF-α and IL-6 release upon the first infusion", "setting": "[7]; serum 6 hrs post first infusion with CD19-TCB", "value": "suppressed"}
    ]},
    {"smiles": "N#CC[C@H](C1CCCC1)n1cc(-c2ncnc3[nH]ccc23)cn1", "note": "[ruxolitinib, Ruxolitinib]", "values": [
      {"measurement": "release of IFN-γ, TNF-α and GM-CSF", "setting": "[1]; CD16 CAR-T cells", "value": "reduced"},
      {"measurement": "release of IFN-γ, TNF-α and GM-CSF", "setting": "[1]; PGLALA CAR-T cells", "value": "reduced"},
      {"measurement": "CTV labelled NALM-6 tumor cell killing", "setting": "[2]", "value": "did not prevent"},
      {"measurement": "further release of IFN-γ, TNF-α and IL-6", "setting": "[3]", "value": "only prevented further release"},
      {"measurement": "CD19-TCB-induced B cell depletion in blood", "setting": "[4]; [8]", "value": "slightly prevented"},
      {"measurement": "CD19-TCB-induced CD20+ B cell depletion in the spleen", "setting": "[4]", "value": "only partially prevented"},
      {"measurement": "CD19-TCB-induced B cell depletion in blood", "setting": "[4]; [9]", "value": "comparable to the effect dexamethasone"},
      {"measurement": "CD19-TCB-induced IFN-γ and IL-6 release", "setting": "[5]", "value": "comparable to the pre-treatement with obinutuzumab"},
      {"measurement": "CD19-TCB-induced IL-2 and TNF-α", "setting": "[5]", "value": "slightly weaker"},
      {"measurement": "anti-tumor activity in combination with CD19-TCB (0.5 mg/kg)", "setting": "[6]", "value": "minimally interfered; also recorded: did not impair"},
      {"measurement": "effects on cytokine levels", "setting": "[7]", "value": "stronger than the effect of obinutuzumab pre-treatment"},
      {"measurement": "IFN-γ, TNF-α and IL-2 release", "setting": "[7]; [10]", "value": "to a lower extent"},
      {"measurement": "IL-6 release", "setting": "[7]; [10]", "value": "decreased"}
    ]}
  ]
}
